From US5635608A, “α-carboxy caged compounds” (Molecular Probes, Inc., priority 1994, dated 1997)

Tested on: whole neuron
Test: Release of a caged neurotransmitter in situ: whole-cell current of a neuron before and on photolysis
Assay type: cell-based
Excerpt: FIG. 2: The photolysis of a caged probe in situ, as described in Example 15.
A whole neuron is bathed in a solution of γ-(α-carboxy o-nitrobenzyl)-caged glutamic acid (3), as described in Example 1. The whole-cell current is then monitored as the neuron is photolyrically illuminated at 343 nm. […] This indicates both that the uncaging of a CNB-caged probe is extremely rapid, but also verifies that the caged neurotransmitter is inert in situ until uncaged.

Question: Which results are given for `N[C@@H](CCC(=O)OC(C(=O)O)c1ccccc1[N+](=O)[O-])C(=O)O` (stereo partly drawn) [Compound 3, L-Glutamic Acid, γ-(α-carboxy-o-nitrobenzyl) ester]?
Answer: whole-cell current on photolytic illumination (illumination at 343 nm, begun at time=0 ms, FIG. 2): increases rapidly; activity of the caged neurotransmitter in situ before uncaging (whole-cell current) (whole neuron bathed in solution of caged glutamic acid, before illumination): inert
